Holding throughout (assay type): biochemical
The target of experiment [1] is LOK (Homo sapiens, UniProt O94804). Briefly: Kinome profiling LOK. As to conditions: read-out: Inhibitory activity LOK; for inhibition at 0.1 µM: 100 nM. On the procedure: (§1) . The kinome-wide selectivity was determined following the methods previously reported by Mohedas et al., ACS Chem Biol 2013, 8, 1291-1302 and Sanvitale et al., PLoS One 2013, 8, e62721.
Experiment [2] addresses T1, ZAP70 (Homo sapiens, UniProt P43403).
T1 sequence (P43403 1-619): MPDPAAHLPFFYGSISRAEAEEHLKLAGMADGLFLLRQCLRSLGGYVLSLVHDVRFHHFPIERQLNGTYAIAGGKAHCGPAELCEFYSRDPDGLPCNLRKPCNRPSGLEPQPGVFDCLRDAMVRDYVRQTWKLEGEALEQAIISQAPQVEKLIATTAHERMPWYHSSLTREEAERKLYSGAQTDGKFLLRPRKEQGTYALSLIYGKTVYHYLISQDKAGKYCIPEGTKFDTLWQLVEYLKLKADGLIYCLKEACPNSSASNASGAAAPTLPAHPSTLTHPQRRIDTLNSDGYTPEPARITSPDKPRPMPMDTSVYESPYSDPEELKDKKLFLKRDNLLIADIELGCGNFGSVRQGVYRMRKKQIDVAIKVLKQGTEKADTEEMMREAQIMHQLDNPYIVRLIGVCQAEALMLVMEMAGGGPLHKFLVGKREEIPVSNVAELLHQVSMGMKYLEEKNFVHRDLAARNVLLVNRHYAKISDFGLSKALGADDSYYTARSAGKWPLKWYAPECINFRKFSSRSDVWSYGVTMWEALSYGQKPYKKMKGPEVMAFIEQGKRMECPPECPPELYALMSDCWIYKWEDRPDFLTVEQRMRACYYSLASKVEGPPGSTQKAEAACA
Briefly: Kinome profiling ZAP70. As to conditions: read-out: Inhibitory activity ZAP70; for inhibition at 0.1 µM: 100 nM. The method, then: as §1

For experiment [3], the target named is MAPK1 (Homo sapiens, UniProt P28482). The experiment is described as follows: Kinome profiling MAPK1. As to conditions: read-out: Inhibitory activity MAPK1; for inhibition at 0.1 µM: 100 nM. The method, then:
as §1

Experiment [4] addresses T2, AXL (Homo sapiens, UniProt P30530).
T2 sequence (P30530 26-894): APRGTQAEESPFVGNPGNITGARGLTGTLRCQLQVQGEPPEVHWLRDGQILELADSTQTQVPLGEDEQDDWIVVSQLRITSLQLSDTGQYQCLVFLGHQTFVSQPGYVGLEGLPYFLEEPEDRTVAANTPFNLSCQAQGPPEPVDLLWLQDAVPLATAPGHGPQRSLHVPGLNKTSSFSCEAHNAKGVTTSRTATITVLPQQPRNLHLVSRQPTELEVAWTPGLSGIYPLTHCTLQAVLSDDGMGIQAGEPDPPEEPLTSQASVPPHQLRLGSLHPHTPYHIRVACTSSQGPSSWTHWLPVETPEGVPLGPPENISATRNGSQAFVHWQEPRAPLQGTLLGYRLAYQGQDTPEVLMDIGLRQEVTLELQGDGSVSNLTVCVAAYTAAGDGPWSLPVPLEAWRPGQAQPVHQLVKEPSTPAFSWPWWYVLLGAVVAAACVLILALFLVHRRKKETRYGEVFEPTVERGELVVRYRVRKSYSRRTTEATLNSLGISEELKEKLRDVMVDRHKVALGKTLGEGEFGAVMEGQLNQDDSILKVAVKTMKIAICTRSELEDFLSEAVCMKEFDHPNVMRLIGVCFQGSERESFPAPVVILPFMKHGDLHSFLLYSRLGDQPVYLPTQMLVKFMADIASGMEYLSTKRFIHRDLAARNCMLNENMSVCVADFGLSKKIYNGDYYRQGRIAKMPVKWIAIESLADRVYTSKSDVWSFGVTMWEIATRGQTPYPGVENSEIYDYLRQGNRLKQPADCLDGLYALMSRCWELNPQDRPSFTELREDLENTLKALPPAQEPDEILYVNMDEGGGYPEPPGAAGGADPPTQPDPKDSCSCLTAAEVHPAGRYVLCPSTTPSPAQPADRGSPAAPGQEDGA
The experiment is described as follows: Kinome profiling AXL. As to conditions: read-out: Inhibitory activity AXL; for inhibition at 0.1 µM: 100 nM. The method, then: as §1

Experiment [5] has as its target MKNK1 (Homo sapiens, UniProt Q9BUB5). The experiment is described as follows: Kinome profiling MKNK1. As to conditions: read-out: Inhibitory activity MKNK1; for inhibition at 0.1 µM: 100 nM. On the procedure: as §1
Experiment [6] deals with MSK1 (Homo sapiens, UniProt O75582). Briefly: Kinome profiling MSK1. Conditions: read-out: Inhibitory activity MSK1; for inhibition at 0.1 µM: 100 nM. The method, then:
as §1

For experiment [7], the target named is T3, TTK (Homo sapiens, UniProt P33981).
T3 sequence (P33981 1-857): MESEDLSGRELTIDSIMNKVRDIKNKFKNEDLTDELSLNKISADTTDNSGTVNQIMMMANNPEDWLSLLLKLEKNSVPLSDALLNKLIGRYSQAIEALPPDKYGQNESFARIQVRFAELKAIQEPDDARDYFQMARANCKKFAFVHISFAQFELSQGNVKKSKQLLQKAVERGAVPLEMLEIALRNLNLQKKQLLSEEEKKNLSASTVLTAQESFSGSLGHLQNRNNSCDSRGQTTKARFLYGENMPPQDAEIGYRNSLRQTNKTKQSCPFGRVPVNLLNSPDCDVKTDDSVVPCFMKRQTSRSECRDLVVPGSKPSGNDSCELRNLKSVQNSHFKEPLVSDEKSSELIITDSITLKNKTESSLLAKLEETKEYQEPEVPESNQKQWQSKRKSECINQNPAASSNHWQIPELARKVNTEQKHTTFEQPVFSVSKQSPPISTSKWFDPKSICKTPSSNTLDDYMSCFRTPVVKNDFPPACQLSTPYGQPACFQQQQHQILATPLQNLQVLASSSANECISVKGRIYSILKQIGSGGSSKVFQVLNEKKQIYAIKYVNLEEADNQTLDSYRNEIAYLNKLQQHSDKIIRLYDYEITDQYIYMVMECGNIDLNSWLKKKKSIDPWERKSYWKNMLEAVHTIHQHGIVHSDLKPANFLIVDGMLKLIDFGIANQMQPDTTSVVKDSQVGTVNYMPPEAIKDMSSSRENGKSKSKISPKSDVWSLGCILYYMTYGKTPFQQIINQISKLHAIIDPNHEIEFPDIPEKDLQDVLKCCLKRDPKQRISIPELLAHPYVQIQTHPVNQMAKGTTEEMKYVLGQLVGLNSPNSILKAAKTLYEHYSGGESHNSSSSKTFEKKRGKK
Briefly: Kinome profiling TTK. Conditions: read-out: Inhibitory activity TTK; for inhibition at 0.1 µM: 100 nM. On the procedure:
as §1

Sequence of LOK (O94804 whole entry): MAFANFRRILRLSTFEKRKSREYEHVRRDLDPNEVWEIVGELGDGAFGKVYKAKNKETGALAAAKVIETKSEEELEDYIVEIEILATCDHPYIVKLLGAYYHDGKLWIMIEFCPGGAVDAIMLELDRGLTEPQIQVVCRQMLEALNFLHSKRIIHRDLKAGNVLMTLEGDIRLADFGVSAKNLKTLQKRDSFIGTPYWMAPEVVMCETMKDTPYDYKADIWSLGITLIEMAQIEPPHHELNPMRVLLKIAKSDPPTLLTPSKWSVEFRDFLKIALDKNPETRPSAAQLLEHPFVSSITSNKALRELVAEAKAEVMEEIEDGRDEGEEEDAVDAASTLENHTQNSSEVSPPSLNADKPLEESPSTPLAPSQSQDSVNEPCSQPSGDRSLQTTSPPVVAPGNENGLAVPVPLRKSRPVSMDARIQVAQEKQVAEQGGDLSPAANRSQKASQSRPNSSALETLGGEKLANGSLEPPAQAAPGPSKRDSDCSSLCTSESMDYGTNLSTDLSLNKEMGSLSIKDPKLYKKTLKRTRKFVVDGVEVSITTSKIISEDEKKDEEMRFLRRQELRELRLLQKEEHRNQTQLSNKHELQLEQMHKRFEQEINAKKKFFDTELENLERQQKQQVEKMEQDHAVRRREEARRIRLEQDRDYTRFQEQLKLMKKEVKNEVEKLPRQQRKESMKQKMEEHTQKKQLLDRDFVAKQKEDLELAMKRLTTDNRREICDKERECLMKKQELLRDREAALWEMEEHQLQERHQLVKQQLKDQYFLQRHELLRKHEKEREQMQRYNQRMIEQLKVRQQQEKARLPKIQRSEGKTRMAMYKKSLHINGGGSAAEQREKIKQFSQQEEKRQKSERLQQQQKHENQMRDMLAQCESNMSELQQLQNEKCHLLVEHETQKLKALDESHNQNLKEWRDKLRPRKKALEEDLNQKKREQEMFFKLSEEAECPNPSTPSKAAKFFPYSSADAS
Sequence of MKNK1 (Q9BUB5 whole entry): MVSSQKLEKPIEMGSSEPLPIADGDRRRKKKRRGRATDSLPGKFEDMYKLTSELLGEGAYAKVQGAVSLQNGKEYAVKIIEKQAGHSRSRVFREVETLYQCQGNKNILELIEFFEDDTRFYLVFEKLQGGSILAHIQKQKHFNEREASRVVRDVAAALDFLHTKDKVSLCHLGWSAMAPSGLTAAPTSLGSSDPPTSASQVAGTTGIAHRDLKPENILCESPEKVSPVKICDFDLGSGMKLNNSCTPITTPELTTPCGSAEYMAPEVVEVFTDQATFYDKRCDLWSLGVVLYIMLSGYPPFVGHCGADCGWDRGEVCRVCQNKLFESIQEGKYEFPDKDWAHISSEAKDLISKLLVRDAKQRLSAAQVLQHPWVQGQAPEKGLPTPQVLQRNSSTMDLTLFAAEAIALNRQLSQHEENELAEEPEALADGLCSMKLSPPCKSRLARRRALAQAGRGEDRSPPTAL
Sequence of MSK1 (O75582 whole entry): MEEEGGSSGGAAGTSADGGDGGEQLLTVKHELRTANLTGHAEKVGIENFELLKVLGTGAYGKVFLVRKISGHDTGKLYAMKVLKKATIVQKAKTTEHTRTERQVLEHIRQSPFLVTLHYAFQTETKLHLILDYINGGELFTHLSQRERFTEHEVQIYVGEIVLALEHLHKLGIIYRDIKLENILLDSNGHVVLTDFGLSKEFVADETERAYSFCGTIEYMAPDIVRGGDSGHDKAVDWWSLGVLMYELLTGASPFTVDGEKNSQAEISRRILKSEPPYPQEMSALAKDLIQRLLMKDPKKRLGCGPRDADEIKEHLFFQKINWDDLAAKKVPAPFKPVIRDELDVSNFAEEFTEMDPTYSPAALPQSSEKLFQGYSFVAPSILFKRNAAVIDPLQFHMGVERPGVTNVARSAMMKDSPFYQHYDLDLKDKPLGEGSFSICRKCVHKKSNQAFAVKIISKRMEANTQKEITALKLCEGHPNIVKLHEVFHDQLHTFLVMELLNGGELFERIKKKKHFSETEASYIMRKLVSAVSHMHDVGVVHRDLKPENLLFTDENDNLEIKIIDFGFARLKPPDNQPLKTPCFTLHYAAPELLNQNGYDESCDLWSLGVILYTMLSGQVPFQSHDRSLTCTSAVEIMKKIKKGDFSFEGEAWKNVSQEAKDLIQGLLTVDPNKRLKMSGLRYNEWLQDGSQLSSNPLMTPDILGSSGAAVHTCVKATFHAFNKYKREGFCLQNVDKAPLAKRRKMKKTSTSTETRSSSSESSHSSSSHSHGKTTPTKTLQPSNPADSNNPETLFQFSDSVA
Sequence of MAPK1 (P28482 whole entry): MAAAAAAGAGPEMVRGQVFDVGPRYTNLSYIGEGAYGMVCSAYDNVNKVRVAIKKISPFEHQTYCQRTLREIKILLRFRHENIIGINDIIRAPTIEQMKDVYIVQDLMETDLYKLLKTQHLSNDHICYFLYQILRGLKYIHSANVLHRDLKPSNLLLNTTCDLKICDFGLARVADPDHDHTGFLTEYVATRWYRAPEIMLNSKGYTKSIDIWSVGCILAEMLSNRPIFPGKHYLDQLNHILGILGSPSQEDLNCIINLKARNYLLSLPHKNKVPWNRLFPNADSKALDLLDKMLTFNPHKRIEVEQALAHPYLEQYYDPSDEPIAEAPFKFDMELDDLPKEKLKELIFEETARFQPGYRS

As to `COc1cc(-c2cc(-c3ccc(N4CCNCC4)cc3)cnc2C)cc(OC)c1OC` [Compound 10, 1-(4-(6-methyl-5-(3,4,5-trimethoxyphenyl)pyridin-3-yl)phenyl)piperazine], the inhibition at 0.1 µM in experiment [1] came to 9%; in experiment [2], 4%; in experiment [3], 1%; in experiment [4], 1%; in experiment [5], 3%; in experiment [6] it was 1%. For the same molecule, the inhibition at 0.1 µM in experiment [7] turned out to be 3%. The inhibition at 1 µM in experiment [1] turned out to be 47%; in experiment [2], 5%; in experiment [3], 1%; in experiment [4] it was 7%; in experiment [5], 5%; in experiment [6], 0%. In addition, in experiment [7], the inhibition at 1 µM worked out at 4%.

On to `COc1cc(-c2cc(-c3ccc(N4CCNCC4)cc3)cnc2N)cc(OC)c1OC` [Compound 15, 5-(4-(piperazin-1-yl)phenyl)-3-(3,4,5-trimethoxyphenyl)pyridin-2-amine], for which the inhibition at 0.1 µM in experiment [1] was 32%; in experiment [2], 1%; in experiment [3], 3%; in experiment [4], -4%; in experiment [5] it was 3%; in experiment [6], 0%. The inhibition at 0.1 µM in experiment [7] came out at 13%. The inhibition at 1 µM in experiment [1] is 73%; in experiment [2], 1%; in experiment [3] it was 6%; in experiment [4], -1%; in experiment [5] it was 5%; in experiment [6] it was 0%. The inhibition at 1 µM in experiment [7] was found to be 18%.

(Values after patent US20170190705A1, “Compositions and Methods for Inhibiting BMP” (THE BRIGHAM AND WOMAN'S HOSPITAL, INC., priority 2014, published 2017).)
